Measurements reported in patent publication US10251824B2, “Method for inducing pluripotent stem cells and pluripotent stem cells prepared by said method” (AMOREPACIFIC CORPORATION, priority 2013, dated 2019).

Columns and labels:
Oct3/4 [1] = test: Oct3/4 immunocytochemistry after digitonin permeabilization (Test Example 2-1); format: cell-based, human; details: 5 μg/mL shikimic acid (water); permeabilized NHDF-Neonatal; day 4
Experimental: (§1) Then, 400× images were obtained using the Carl Zeiss Confocal microscope LSM510 by immunocytochemistry using Oct3/4 antibody (Genetex, GTX100622, ×200) and Alexa Fluor® 488 goat anti-rabbit IgG. The ratio of Oct3/4-positive cells was determined by analyzing the Carl Zeiss Confocal microscopic images obtained from the Oct3/4 ICC experiment, for 4 or more images per sample, 5 on average.

NHDF-Neonatal [2] = test: Proliferating ability of dermal cells, WST-1 (Test Example 5); format: cell-based, human; details: 5 μg/mL shikimic acid; WST-1, absorbance 450 nm
Experimental: 2,000 NHDF-Neonatal (CC-2509, Lonza, USA) were attached on a 96-well plate. […] Then, we were subculturing it for 7 days (as confluency becomes to 90% or below on 7th day). After 6 days later, 10 μL of WST-1 was treated and absorbance was measured at 450 nm.

[3] = tested on: alkaline phosphatase (ALP); details: 5 μg/mL shikimic acid; day 11
Experimental: Untreated NHDF-Neonatal were used as a negative control group. On day 6 after the treatment, the cells (5,000 cells) were attached on a 12-well plate. 5 days later, i.e., on day 11, the cells were fixed with 3.8% formaldehyde in PBS and kept at room temperature for 15 minutes. Then, the cells were treated with 200 μL of the NBT/BCIP® ALP substrate solution diluted in 10 mL of ALP buffer, with 0.5 mL each time. 20 hours later, the cells were observed under the Olympus CKX41 optical microscope at 40× magnification.

[4] = tested on: alkaline phosphatase (ALP); test: Alkaline phosphatase (ALP) staining, shikimic acid at different concentrations (Test Example 3-2); format: cell-based, human; details: 10 μM or 10 mM shikimic acid; day 12; versus normal HDF
Description: On day 5 after the treatment, the cells (100,000 cells) were attached on a 6-well plate.

NHDF-Neonatal [5] = test: Colony-forming ability of dermal cells, crystal violet (Test Example 4-2); format: cell-based, human
Experimental: (§2) On day 5 after subculturing, the cells (200 cells) were attached on a 60-mm plate. On day 17, the cells were washed with ice-cold PBS and then fixed with ice-cold methanol kept at −20° C. for 10 minutes. The cells were stained by treating for 5-10 minutes with a working solution, which had been prepared by diluting 1% crystal violet in an ethanol stock solution 1/10 with PBS, washed 4 times with PBS and then imaged. For quantitative analysis, the cells were eluted by treating with an elution buffer consisting of 50% ethanol, 40% DW, and 10% acetic acid for 5 minutes. Then, absorbance was measured at 580 nm after transferring 200 μL of the cells to a 96-well plate.

Oct3/4 [6] = test: Oct3/4 immunocytochemistry, shikimic acid at different concentrations (Test Example 2-2); format: cell-based, human; details: for Ratio of Oct3/4-positive cells (%) Mean: NHDF-Neonatal, day 8
Experimental: as §1

NHDF-Neonatal [7] = test: Colony-forming ability of dermal cells, crystal violet (Test Example 4-1); format: cell-based, human; details: shikimic acid, concentration not given; absorbance 580 nm
Experimental: as §2, with “day 10” for “day 5”, “day 23,” for “day 17,”

O=C(O)C1=C[C@@H](O)[C@@H](O)[C@H](O)C1 [shikimic acid]
Ratio of Oct3/4-positive cells (%) Mean (Oct3/4 [1]): 29%
Increase of cell division as compared to the normal control group (FIG. 18) (NHDF-Neonatal [2]): 2 times
Expression of ALP (FIG. 12) [3]: increased expression of ALP
Expression of ALP (FIG. 13) [4]: the expression of ALP was increased remarkably
Increase of colony-forming ability as compared to the negative control group (FIG. 17) (NHDF-Neonatal [5]; 10 μM, 50 μM, 100 μM, 1 mM or 10 mM shikimic acid, absorbance 580 nm, day 17): 1.27-5.06 times
Crystal violet stained area, colony formation (FIG. 15) (NHDF-Neonatal [5]; 10 μM-10 mM shikimic acid, day 17, versus negative control): larger stained area
Colony-forming ability, comparison of concentrations (FIG. 17) (NHDF-Neonatal [5]; 1 mM shikimic acid): the most increase in colony-forming ability
Expression of the Oct3/4 gene in HDF (FIG. 11) (Oct3/4 [6]; 10 μM or 10 mM shikimic acid, compared to untreated normal HDF): increased expression of the Oct3/4 gene
Ratio of Oct3/4-positive cells (%) Mean (Oct3/4 [6]; 10 μM shikimic acid (water)): 29%
Ratio of Oct3/4-positive cells (%) Mean (Oct3/4 [6]; 10 mM shikimic acid (water)): 27%
Percentage of the cells positive for the Oct3/4 gene, on average (Oct3/4 [6]; shikimic acid in water, 10 μM and 10 mM): 27-29%
Increase of colony-forming ability as compared to the negative control group (FIG. 16) (NHDF-Neonatal [7]): about 3.8 times
